Experimental data taken from patent US7312239B2, “Medicament for prevention and/or therapy of arterial wall disorder” (Mitsubishi Pharma Corporation, priority 2002, dated 2007).

What was measured:
[1] = system: abdominal aorta of rabbits injured by use of a balloon; experiment: Balloon injury of abdominal aorta in cholesterol-fed rabbits, ratio of new intima to new media (I/M); type: in vivo, Japanese white rabbits; conditions: rabbits on 1% cholesterol food, 10 mg/kg intravenous injection twice per day from the day before injury, 10th week, p=0.018 vs control 0.475±0.136
Method: (§1) Japanese white rabbits were divided into two groups, an edaravone group (n=6) and a control group (n=6), and they were fed with 1% cholesterol food for 10 weeks. On the 8th week, the rabbits of both groups were injured such that their abdominal aorta was damaged by use of a balloon. For the edaravone group, edaravone was administered every day (10 mg/kg, intravenous injection twice per day) from the day before the balloon injury. For the control group, a physiological salt solution was administered. On the 10th week, the rabbits were sacrificed, and their abdominal aorta was excised. The ratio of a new intima to a new media (the ratio of the intimal area of a blood vessel section to the medial area thereof; I/M) was measured as follows. First, total 5 portions were cut out of the abdominal aorta into round slices each having a width of 5 mm, and HE-stained samples were prepared therefrom. A new intimal area and a new medial area were analyzed with computer software, and the mean value of the 5 portions was obtained, followed by calculation of I/M.

[2] = Total cholesterol, triglyceride and lipid peroxide in serum of balloon-injured cholesterol-fed rabbits; type: in vivo, Japanese white rabbits; conditions: 10 mg/kg i.v. twice per day, before cholesterol food, at balloon injury, at sacrifice, vs control group
Method: as §1
Moreover, total cholesterol (TC), triglyceride (TG) and lipid peroxide (LPO) in serum were measured, before the rabbits were fed with cholesterol food, when they were injured by use of a balloon, and when they were sacrificed.

[3] = system: right common carotid artery injured by abrasion with a 2F balloon; experiment: Balloon injury of carotid artery in OLETF rats with type II diabetes, I/M; type: in vivo; conditions: male OLETF rats with type II diabetes, administered from 3 days before to 14th day after operation; p<0.01 vs vehicle 1.12±0.15
Method: 11′-week-old female SD rats were divided into two groups, an ovary elimination group (OVX) and an ovary non-elimination group (INT). To the OVX group, edaravone (Ed) (30 mg/kg/day) (n=8) or vehicle (V) (n=7) was orally administered, and to the INT group (n=4), vehicle (V) was administered. The vascular endothelium of the right common carotid artery was injured by abrasion with a 2F balloon. The above drugs were administered for 3 days immediately after the above operation. On the 14th day, the blood vessel was excised, and the ratio of a new intima to a new media (I/M) was calculated. 30-week-old male OLETF rats with type II diabetes were divided into two groups, an edaravone (Ed) administration group (n=4) and a vehicle (V) administration group (n=4). The above-described blood vessel injury was carried out on them. The above drugs were continuously administered from 3 days before the above operation to the 14th day after the above operation. Thereafter, the ratio of a new intima to a new media (I/M) was calculated.

[4] = system: right common carotid artery injured by abrasion with a 2F balloon; experiment: Balloon injury of right common carotid artery in ovary-eliminated rats, I/M; type: in vivo; conditions: ovary elimination (OVX) female SD rats, 30 mg/kg/day oral for 3 days after operation, 14th day; p<0.01 vs OVX+V 1.36±0.12
Method: 11′-week-old female SD rats were divided into two groups, an ovary elimination group (OVX) and an ovary non-elimination group (INT). To the OVX group, edaravone (Ed) (30 mg/kg/day) (n=8) or vehicle (V) (n=7) was orally administered, and to the INT group (n=4), vehicle (V) was administered. The vascular endothelium of the right common carotid artery was injured by abrasion with a 2F balloon. The above drugs were administered for 3 days immediately after the above operation. On the 14th day, the blood vessel was excised, and the ratio of a new intima to a new media (I/M) was calculated.

CC1=NN(c2ccccc2)C(=O)C1 [edaravone, 3-methyl-1-phenyl-2-pyrazolin-5-one]
ratio of a new intima to a new media (I/M) [1]: 0.344±0.055
lipid peroxide (LPO) in serum [2]: not significantly different
total cholesterol (TC) in serum [2]: not significantly different
triglyceride (TG) in serum [2]: not significantly different
ratio of a new intima to a new media (I/M) [3]: 0.55±0.02
ratio of a new intima to a new media (I/M) [4]: 0.82±0.09
